Reference: PMC12040169 (PLOS Biology, 2025)

Assay: in vitro
Conditions: human, hela cells, % viability

Row | SMILES | viability at 28.5 h, 10 µM
1 | OC1(c2cccnc2)CCCC2CN(Cc3cc(F)ccc3F)CC21 (stereo not shown) [CBK284513] | 103%
2 | N=C1OC2CSCC2N1C(=O)Cc1ccc(F)cc1 (stereo not shown) [CBK284515] | 103%
3 | Cc1cc(C(=O)N2C3CCC2CC(O)(c2ccnn2C)C3)sc1C (stereo not shown) [CBK284518] | 103%
4 | O=C(Cc1ccccc1F)NCCn1nc2c(cc1=O)CCCCC2 [CBK284519] | 94.7%
5 | Cc1cc(-c2ccc(=O)n(CCNC(=O)C3CCCCC3)n2)c(C)o1 [CBK284522] | 95.7%
6 | N=C1OC2CSCC2N1C(=O)C1(c2ccccc2)CC1 (stereo not shown) [CBK284524] | 106%
7 | O=C(c1cccs1)N1CCC[C@@H]1Cn1c(=O)oc2ccccc21 [CBK284528] | 102%
8 | CCCC(=O)N[C@@H](Cn1c(=O)oc2ccccc21)C(C)C [CBK284536] | 91.2%
9 | O=C(c1ccco1)N1CCC[C@@H]1Cn1c(=O)oc2ccccc21 [CBK284538] | 87.6%
10 | O=C(C1CCCC1)N1CCC[C@@H]1Cn1c(=O)oc2ccccc21 [CBK284539] | 87.3%
11 | CC[C@H](Cn1c(=O)oc2ccccc21)NC(=O)c1cccs1 [CBK284540] | 80.7%
12 | CC[C@H](Cn1c(=O)oc2ccccc21)NC(=O)c1ccco1 [CBK284541] | 86.7%
13 | C[C@H](Cn1nc2c(cc1=O)CCCCC2)NC(=O)Cc1cccs1 [CBK284548] | 100%
14 | COc1ccc(F)c(CN2CC3CCCN3C[C@@H]2C)c1 (stereo partly shown) [CBK284549] | 86.9%
15 | CC[C@@H](Cn1nc2c(cc1=O)CCCCC2)NC(=O)c1ccco1 [CBK284553] | 78.2%
16 | C[C@@H]1CN2CCCC2CN1Cc1ccc2ncccc2c1 (stereo partly shown) [CBK284555] | 99.3%
17 | Cc1nc2nc(-c3ccc(Cl)s3)cn2nc1C [CBK284565] | 103%
18 | CC(C)C(=O)N1C[C@H]2N(C)C(=O)c3ccccc3C(=O)[C@@]2(C)C1 [CBK284568] | 97.8%
19 | CN1C(=O)c2ccccc2C(=O)[C@@]2(C)CN(C(=O)C3CC3)C[C@@H]12 [CBK284569] | 87.3%
20 | CN1C(=O)c2ccccc2C(=O)[C@@]2(C)CN(C(=O)C3CCCC3)C[C@@H]12 [CBK284570] | 91.5%
21 | CC(=O)NCCn1cc2c(n1)[C@H]1CN(C(=O)C(C)C)C[C@H]1CC2 [CBK284571] | 93.3%
22 | CC(=O)NCCn1cc2c(n1)[C@H]1CN(C(=O)CC(C)C)C[C@H]1CC2 [CBK284572] | 99.1%
23 | CCOC(=O)[C@@]12CC=CCN(C(=O)c3ccco3)[C@@H]1CCC2 [CBK284574] | 104%

Row | SMILES | viability at 28.5 h, 10 µM
24 | CCOC(=O)[C@@]12CC=CCN(C(=O)c3cccnc3)[C@@H]1CCC2 [CBK284575] | 90.8%
25 | CCn1ncc(CN2CCC(c3onc4c3CCCC4)CC2)c1C [CBK284576] | 90.2%
26 | CCOC(=O)C1(Cc2cc(-c3ccccc3F)no2)CCCNC1 (stereo not shown) [CBK284577] | 85.2%
27 | CCOC(=O)C1(Cc2cc(-c3ccc(F)cc3)no2)CCCNC1 (stereo not shown) [CBK284579] | 84%
28 | CCOC(=O)C1(Cc2cc(-c3ccccc3F)no2)CCNCC1 [CBK284580] | 101%
29 | CCOC(=O)C1(Cc2cc(-c3ccc(F)cc3)no2)CCNCC1 [CBK284581] | 109%
30 | CN(C)[C@@H]1CN(Cc2ccccn2)C[C@H]1c1cn(C)c2ccccc12 [CBK284582] | 97.9%
31 | CC(=O)NCCn1cc2c(n1)[C@H]1CN(C(=O)C3CCC3)C[C@H]1CC2 [CBK284584] | 107%
32 | CC(=O)N1C[C@@H](c2ccsc2)[C@@H]2CN(CC3CCCCC3)CC[C@@H]21 [CBK284587] | 93%
33 | O=C(NC1CC1)c1cc(C2CCCN(Cc3cccc(F)c3)C2)no1 (stereo not shown) [CBK284588] | 99%
34 | CC1CCN(C(=O)[C@@H]2CN(C)C[C@]23CCc2ccccc2C3=O)CC1 [CBK284589] | 100%
35 | CC(=O)N1CCCC(c2cc3cccnc3n2CCN2CCCC2)C1 (stereo not shown) [CBK284591] | 96.8%
36 | Cc1c(C(=O)N2CCCC(c3nc(C)n4ccsc34)C2)cnn1C (stereo not shown) [CBK284593] | 102%
37 | Cc1csc2c(C3CCCN(C(=O)c4ccccn4)C3)nc(C)n12 (stereo not shown) [CBK284594] | 98.6%
38 | COCC(=O)N1CCC(c2onc3c2CC(C)CC3)CC1 (stereo not shown) [CBK284599] | 89.9%
39 | COCC(=O)N1CCC(c2cc(-c3ccc(F)cc3)n[nH]2)C1 (stereo not shown) [CBK284600] | 101%
40 | COc1ccc(OC[C@@H]2C3CCC(C3)N2C(=O)C2CC2)cc1 (stereo partly shown) [CBK284602] | 94.7%
41 | Cc1noc2nc(C3CCCN(C(=O)C4CC4)C3)cc(C(F)F)c12 (stereo not shown) [CBK284608] | 85.8%
42 | O=C1NC2(CCc3ccccc31)CCN(Cc1ccncc1)C2 (stereo not shown) [CBK284610] | 99%
43 | Cc1cccnc1CN1CCC2(CCc3ccccc3C(=O)N2)C1 (stereo not shown) [CBK284611] | 96.4%
44 | O=C(C1CCCC1)N1CCC(c2nnc3n2CCCCC3)CC1 [CBK284612] | 103%
45 | CCCCC(=O)N1CC(n2nc(-c3ccccc3)ccc2=O)C1 [CBK284615] | 95.6%
46 | O=C1NC2(CCc3ccccc31)CCN(C/C=C/c1cccnc1)C2 (stereo not shown) [CBK284622] | 86.2%

Row | SMILES | viability at 28.5 h, 10 µM
47 | O=C(C1CCC1)N1CCC(c2nnc3n2CCCCC3)CC1 [CBK284625] | 103%
48 | O=C(c1ccccc1F)N1CCC(c2nnc3n2CCCCC3)CC1 [CBK284628] | 82.2%
49 | CC(C)CC(=O)N1CCC(c2nnc3n2CCCCC3)CC1 [CBK284629] | 83.2%
50 | O=C(NCc1nnc(-c2cccs2)o1)c1cccc(Cl)c1 [CBK284633] | 95.6%
51 | O=C(NCc1nnc(-c2cccs2)o1)c1cccc(F)c1F [CBK284634] | 91.1%
52 | O=C(NCc1nnc(-c2cccs2)o1)c1cccc2ccccc12 [CBK284636] | 82.1%
53 | O=C(NCc1nnc(-c2cccs2)o1)C1(c2ccccc2F)CC1 [CBK284637] | 83.2%
54 | O=C(NCc1nnc(-c2cccs2)o1)C1(c2ccc(F)cc2)CC1 [CBK284638] | 74.4%
55 | O=C(NCc1nnc(-c2cccs2)o1)C1(c2cccc(F)c2)CC1 [CBK284639] | 90.2%
56 | Cc1ccc(-c2nnc(CNC(=O)C3(c4ccccc4)CC3)o2)s1 [CBK284642] | 95.9%
57 | O=C(Cc1ccccc1Cl)NCc1nnc(-c2cccs2)o1 [CBK284643] | 96.4%
58 | Cc1ccc(-c2nnc(CNC(=O)Cc3ccccc3F)o2)s1 [CBK284644] | 78.4%
59 | Cc1ccc(-c2nnc(CNC(=O)Cc3ccc(F)cc3)o2)s1 [CBK284645] | 91.3%
60 | Cc1ccc(-c2nnc(CNC(=O)Cc3ccccc3Cl)o2)s1 [CBK284648] | 85.2%
61 | Nc1ccc([C@@H]2CN(Cc3ccccc3)C[C@]23CCCC(=O)N3)cc1 [CBK284649] | 97.5%
62 | O=C(C1CC1)N1CC(n2nc(-c3cccs3)ccc2=O)C1 [CBK284650] | 85.1%
63 | O=C(C1CC1)N1C2CCC1CC(O)(Cn1ccc3ccncc31)C2 (stereo not shown) [CBK284652] | 90.4%
64 | CC1CC1C(=O)N1C2CCC1CC(O)(Cn1ccc3ccncc31)C2 (stereo not shown) [CBK284653] | 85.6%
65 | COC1CCCC(C(=O)NC(Cc2ccsc2)c2cccnc2)C1 (stereo not shown) [CBK284654] | 84.4%
66 | CCCC(=O)N1CCC(c2nc3ccc(F)cc3cc2N)CC1 [CBK284655] | 92.1%
67 | Nc1cc2cc(F)ccc2nc1C1CCN(C(=O)C2CC2)CC1 [CBK284657] | 93.4%
68 | CC(C)(C)OC(=O)N1CCC(c2nc3ccc(F)cc3cc2N)CC1 [CBK284658] | 88.9%
69 | Cc1nccn1CC1(O)CCN(C(=O)C2(c3ccccc3)CC2)CC1 [CBK284659] | 94.6%

Row | SMILES | viability at 28.5 h, 10 µM
70 | Cc1ccc(C(C)C(=O)N2CCC(O)(Cn3ccnc3C)CC2)cc1 (stereo not shown) [CBK284660] | 83.8%
71 | OC1(Cn2cnc3ccccc32)CCN(Cc2ccccc2F)CC1 [CBK284662] | 85.3%
72 | OC1(Cn2cnc3ccccc32)CCN(Cc2cccc(F)c2)CC1 [CBK284663] | 94.9%
73 | O=C(Cn1cccn1)NC(Cc1ccsc1)c1nccs1 (stereo not shown) [CBK284666] | 94%
74 | CC(C)n1cc(C(=O)N2CCCC2c2nc3ccccc3[nH]2)cn1 (stereo not shown) [CBK284667] | 108%
75 | Cc1cc(C2CCCCCN2S(=O)(=O)c2ccc(F)cc2)on1 (stereo not shown) [CBK284668] | 82.2%
76 | CS(=O)(=O)N1CCCCCC1c1cc(-c2ccc(F)cc2)no1 (stereo not shown) [CBK284669] | 91.8%
77 | CS(=O)(=O)N1CCCCCC1c1cc(-c2cccs2)on1 (stereo not shown) [CBK284670] | 85.5%
78 | CC(=O)Nc1ccc(C#CC2(NC(=O)C3CC3)CCCCC2)cn1 [CBK284676] | 87.4%
79 | O=C(Cn1cccc2cc(C3CCNCC3)nc1-2)N1CCCCCC1 [CBK284679] | 95.6%
80 | O=C(Cn1cccc2cc(C3CCNCC3)nc1-2)N1CCCC1 [CBK284680] | 98%
81 | CCC(C)NC(=O)Cn1cccc2cc(C3CCNCC3)nc1-2 (stereo not shown) [CBK284681] | 110%
82 | Cc1cnc2[nH]c(C3CCN(C(=O)c4cnn(C)c4C)CC3)cc2c1 [CBK284684] | 88.8%
83 | Cc1cc(C(F)(F)F)n2nc(C3CCCN3C(=O)C(C)C)cc2n1 (stereo not shown) [CBK284685] | 93%
84 | CC1CCCN(Cc2c(C3CCOCC3)[nH]c3ncccc23)C1 (stereo not shown) [CBK284687] | 97%
85 | Cc1nccn1CC1(O)CCN(C(=O)CCc2ccccc2F)CC1 [CBK284689] | 96.6%
86 | CN1C(=O)c2ccccc2C(=O)[C@@]2(C)CN(Cc3ccccc3)C[C@@H]12 [CBK284692] | 95.1%
87 | Cn1cnc2cc(NCc3cc(-c4ccc(F)cc4)c[nH]c3=O)ccc21 [CBK284693] | 50.7%
88 | O=c1[nH]cc(-c2ccc(F)cc2)cc1CNCc1ccc(F)cc1 [CBK284695] | 96.1%
89 | O=c1[nH]cc(-c2ccc(F)cc2)cc1CNCc1cccc(F)c1 [CBK284697] | 94.6%
90 | CCn1ncc(CN2CCCC(c3cc4cccnc4[nH]3)C2)c1C (stereo not shown) [CBK284700] | 96.9%
91 | CCn1cc(CN2CCCC(c3cc4cccnc4[nH]3)C2)c(C)n1 (stereo not shown) [CBK284701] | 89.2%
